Data reported in patent publication US6348309B1, “Process for inactivating viruses in blood and blood products” (priority 1989, dated 2002).
Marks after values point to notes of the source that are not given here.

Key:
[1] = test system: vesicular stomatitis virus (VSV); format: cell-based
HIV-1 = assay: MB/light treatment of HIV-1 in plasma, infectivity on MT-4 cells (Example 5); format: cell-based
HIV-2 = assay: MB/light virus inactivation in plasma (Example 6, Table VI); format: cell-based; details: illumination 15 min; * production conditions, plastic bag 250-300 ml plasma
SIV = assay: as above; format: cell-based; details: illumination 15 min; * production conditions, plastic bag 250-300 ml plasma
Herpes Simplex = assay: as above; format: cell-based; details: illumination 60 min; * production conditions, plastic bag 250-300 ml plasma
Bovine Herpes = assay: as above; format: cell-based; details: illumination 30 min; * production conditions, plastic bag 250-300 ml plasma
Suid Herpes Type 1 = format: cell-based
Sindbis = format: cell-based
West Nile = assay: MB/light virus inactivation in plasma (Example 6, Table VI); format: cell-based; details: illumination 60 min
Hog Cholera = format: cell-based
Vesicular Stomatitis = format: cell-based
Influenza = format: cell-based
Calici = format: cell-based
adeno-virus = assay: Photodynamic treatment of adenovirus with freeze/thaw step (Example 8); format: cell-based
coagulation factor V = target: T1, coagulation factor V (Homo sapiens, UniProt P12259); assay: Coagulation factor activity in human plasma right after MB addition (Example 9); format: biochemical; details: no light
T1 construct: Varying amounts of MB were added to human plasma (2 ml aliquots); from tissue; host or cells: human plasma

coagulation factor IX [2] = target: T2, coagulation factor IX (Homo sapiens, UniProt P00740); assay: as above; format: biochemical; details: no light
T2 construct: Varying amounts of MB were added to human plasma (2 ml aliquots); from tissue; host or cells: human plasma

coagulation factor IX [3] = target: T2, coagulation factor IX; assay: Coagulation factor activity in human plasma with MB and light exposure (Example 10); format: biochemical
VSV = format: cell-based, vesicular stomatitis virus
factor VIII = target: T3, factor VIII (Homo sapiens, UniProt P00451); assay: Factor VIII content of plasma after MB and adsorbing agent (Example 14); format: biochemical; details: fresh plasma + MB 10 μM, no adsorbing agent
T3 construct: MB was added to 250 ml fresh plasma; from tissue; host or cells: fresh plasma
T3 sequence (P00451 20-1332 limits assumed): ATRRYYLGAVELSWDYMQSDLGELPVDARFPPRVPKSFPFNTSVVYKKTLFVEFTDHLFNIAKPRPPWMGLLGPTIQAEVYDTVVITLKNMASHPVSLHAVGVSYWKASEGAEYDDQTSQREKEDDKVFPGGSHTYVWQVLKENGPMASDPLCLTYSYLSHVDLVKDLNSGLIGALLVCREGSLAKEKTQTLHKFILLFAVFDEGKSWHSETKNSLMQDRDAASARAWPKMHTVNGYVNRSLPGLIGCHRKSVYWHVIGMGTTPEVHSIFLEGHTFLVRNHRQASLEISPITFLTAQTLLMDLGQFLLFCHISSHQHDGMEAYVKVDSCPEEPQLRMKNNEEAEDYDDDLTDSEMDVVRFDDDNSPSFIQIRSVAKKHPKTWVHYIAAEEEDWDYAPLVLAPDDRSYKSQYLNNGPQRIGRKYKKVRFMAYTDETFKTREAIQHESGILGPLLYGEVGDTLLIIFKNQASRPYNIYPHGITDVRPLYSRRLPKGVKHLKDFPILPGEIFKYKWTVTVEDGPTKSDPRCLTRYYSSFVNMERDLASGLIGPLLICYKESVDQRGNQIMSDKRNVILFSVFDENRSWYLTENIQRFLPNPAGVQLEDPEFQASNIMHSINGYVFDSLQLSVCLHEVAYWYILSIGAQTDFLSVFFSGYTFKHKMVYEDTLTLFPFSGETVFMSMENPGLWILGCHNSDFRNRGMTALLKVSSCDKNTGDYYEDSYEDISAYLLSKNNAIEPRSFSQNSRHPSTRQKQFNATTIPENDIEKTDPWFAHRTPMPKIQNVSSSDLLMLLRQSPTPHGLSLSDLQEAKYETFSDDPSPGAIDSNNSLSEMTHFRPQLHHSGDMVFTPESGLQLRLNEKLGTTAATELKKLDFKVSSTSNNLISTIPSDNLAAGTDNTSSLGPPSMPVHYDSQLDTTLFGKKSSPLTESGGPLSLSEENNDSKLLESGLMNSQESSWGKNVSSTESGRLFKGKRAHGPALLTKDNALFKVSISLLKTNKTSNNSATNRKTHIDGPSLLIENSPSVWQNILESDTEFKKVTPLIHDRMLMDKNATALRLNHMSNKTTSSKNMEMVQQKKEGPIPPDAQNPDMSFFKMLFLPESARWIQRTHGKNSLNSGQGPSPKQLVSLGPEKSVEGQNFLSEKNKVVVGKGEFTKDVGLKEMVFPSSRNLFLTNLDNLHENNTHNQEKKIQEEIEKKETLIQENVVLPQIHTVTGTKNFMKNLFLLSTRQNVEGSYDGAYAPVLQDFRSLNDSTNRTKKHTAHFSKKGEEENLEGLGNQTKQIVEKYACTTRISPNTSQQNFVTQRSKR
T3 sequence (P00451 1668-2351 limits assumed): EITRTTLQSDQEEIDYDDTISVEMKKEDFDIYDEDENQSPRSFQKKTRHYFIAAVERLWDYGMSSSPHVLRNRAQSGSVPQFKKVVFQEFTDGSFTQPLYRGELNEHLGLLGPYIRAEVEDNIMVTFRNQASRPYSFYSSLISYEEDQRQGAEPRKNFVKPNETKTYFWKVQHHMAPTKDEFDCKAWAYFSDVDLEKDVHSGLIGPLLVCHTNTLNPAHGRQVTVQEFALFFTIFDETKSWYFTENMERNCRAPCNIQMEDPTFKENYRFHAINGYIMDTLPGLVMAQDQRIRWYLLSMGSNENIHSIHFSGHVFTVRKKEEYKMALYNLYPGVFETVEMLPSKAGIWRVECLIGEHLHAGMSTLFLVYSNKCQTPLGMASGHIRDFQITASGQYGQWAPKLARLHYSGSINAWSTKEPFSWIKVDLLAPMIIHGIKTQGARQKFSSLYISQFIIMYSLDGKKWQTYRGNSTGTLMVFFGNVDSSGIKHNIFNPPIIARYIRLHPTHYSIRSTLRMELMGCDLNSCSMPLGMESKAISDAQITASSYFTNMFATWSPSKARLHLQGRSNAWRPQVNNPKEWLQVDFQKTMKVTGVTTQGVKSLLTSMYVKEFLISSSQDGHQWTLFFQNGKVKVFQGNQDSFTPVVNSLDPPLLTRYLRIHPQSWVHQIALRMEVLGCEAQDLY

T1 sequence (P12259 29-2224): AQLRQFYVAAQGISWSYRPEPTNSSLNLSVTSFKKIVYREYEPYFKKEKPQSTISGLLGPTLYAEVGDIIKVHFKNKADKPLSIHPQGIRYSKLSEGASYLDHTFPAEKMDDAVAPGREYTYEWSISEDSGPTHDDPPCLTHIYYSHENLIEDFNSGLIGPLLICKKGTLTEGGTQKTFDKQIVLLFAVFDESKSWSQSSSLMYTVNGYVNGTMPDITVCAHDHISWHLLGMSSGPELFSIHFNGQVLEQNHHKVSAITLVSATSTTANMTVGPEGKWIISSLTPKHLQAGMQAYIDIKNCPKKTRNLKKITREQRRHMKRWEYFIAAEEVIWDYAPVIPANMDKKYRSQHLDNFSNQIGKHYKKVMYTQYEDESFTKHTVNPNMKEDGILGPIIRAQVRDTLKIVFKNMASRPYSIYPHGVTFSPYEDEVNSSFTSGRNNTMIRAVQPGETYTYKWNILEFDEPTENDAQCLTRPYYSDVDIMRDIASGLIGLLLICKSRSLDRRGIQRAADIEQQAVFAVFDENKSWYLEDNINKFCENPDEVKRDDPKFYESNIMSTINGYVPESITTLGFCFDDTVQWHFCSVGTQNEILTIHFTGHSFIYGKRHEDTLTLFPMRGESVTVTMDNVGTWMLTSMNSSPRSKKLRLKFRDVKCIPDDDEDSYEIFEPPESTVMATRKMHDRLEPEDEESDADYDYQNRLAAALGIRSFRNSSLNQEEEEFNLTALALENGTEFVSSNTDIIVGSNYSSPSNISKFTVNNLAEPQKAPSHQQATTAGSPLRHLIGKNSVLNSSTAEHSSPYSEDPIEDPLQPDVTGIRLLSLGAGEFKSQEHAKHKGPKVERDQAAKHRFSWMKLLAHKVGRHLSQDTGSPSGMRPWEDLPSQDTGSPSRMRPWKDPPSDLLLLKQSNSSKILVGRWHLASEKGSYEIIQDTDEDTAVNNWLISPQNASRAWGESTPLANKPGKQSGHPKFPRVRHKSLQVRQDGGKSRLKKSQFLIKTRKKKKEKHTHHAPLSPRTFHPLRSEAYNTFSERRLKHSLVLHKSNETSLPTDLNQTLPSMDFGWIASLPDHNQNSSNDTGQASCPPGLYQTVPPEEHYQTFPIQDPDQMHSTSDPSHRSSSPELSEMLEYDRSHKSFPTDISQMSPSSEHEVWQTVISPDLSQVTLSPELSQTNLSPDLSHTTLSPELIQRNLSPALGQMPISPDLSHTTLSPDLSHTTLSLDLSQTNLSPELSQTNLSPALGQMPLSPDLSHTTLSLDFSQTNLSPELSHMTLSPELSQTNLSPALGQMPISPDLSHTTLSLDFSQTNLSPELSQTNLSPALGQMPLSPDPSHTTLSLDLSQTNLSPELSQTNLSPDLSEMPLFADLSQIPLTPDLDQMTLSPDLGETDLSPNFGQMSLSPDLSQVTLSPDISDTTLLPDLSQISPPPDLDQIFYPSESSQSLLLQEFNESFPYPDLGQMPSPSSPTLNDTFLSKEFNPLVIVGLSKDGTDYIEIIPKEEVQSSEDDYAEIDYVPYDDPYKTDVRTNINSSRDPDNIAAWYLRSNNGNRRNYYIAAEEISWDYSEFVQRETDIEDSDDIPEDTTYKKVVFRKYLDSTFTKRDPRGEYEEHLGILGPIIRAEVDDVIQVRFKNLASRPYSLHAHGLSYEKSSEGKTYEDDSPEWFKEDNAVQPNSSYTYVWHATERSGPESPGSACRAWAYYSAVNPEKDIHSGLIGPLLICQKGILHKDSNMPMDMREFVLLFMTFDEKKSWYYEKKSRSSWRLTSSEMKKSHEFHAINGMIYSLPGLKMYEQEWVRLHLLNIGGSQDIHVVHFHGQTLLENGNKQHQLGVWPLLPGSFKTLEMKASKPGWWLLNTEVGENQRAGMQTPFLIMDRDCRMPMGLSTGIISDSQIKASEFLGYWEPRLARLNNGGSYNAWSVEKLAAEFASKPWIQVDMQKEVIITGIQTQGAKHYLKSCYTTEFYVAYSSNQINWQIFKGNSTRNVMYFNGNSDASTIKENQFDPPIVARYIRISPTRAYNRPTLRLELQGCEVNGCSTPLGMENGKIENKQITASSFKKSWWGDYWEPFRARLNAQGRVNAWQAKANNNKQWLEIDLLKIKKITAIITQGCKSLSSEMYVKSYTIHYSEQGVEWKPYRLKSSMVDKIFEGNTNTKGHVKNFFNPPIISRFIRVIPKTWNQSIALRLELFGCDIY
T2 sequence (P00740 47-461): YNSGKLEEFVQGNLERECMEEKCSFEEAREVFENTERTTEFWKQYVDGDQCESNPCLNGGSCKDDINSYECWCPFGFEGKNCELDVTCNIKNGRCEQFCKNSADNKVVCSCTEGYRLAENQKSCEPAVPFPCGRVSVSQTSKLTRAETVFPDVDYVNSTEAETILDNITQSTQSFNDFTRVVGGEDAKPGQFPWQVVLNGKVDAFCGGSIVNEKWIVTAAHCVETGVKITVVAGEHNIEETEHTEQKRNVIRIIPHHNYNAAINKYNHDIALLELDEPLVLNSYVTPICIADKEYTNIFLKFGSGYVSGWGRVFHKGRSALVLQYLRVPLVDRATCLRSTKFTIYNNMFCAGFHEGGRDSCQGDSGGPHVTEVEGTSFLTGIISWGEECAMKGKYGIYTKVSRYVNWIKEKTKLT

CN(C)c1ccc2nc3ccc(=[N+](C)C)cc-3sc2c1 [MB, methylene blue]
reduction of infectious titer of VSV by irradiation [1]: more than 6 log10 | effect of the dye alone on the virus (HIV-1; MB 1 μM, no illumination): not detrimental to the virus | reduction of viral infectivity (HIV-1; MB 1 μM, within the first 10 minutes of light exposure): approx. 6 log10 steps | Log10 TCID50/ml HIV-1 (HIV-1; Sample A, MB 1 μM without light, 0 min): 6.00 Log10 TCID50/ml | Log10 TCID50/ml HIV-1 (HIV-1; Sample A, MB 1 μM without light, 2 min): 5.94 Log10 TCID50/ml | Log10 TCID50/ml HIV-1 (HIV-1; Sample A, MB 1 μM without light, 5 min): 5.94 Log10 TCID50/ml | Log10 TCID50/ml HIV-1 (HIV-1; Sample A, MB 1 μM without light, 10 min): 5.94 Log10 TCID50/ml | Log10 TCID50/ml HIV-1 (HIV-1; Sample A, MB 1 μM without light, 15 min): 6.06 Log10 TCID50/ml | Log10 TCID50/ml HIV-1 (HIV-1; Sample A, MB 1 μM without light, 30 min): 5.76 Log10 TCID50/ml | Log10 TCID50/ml HIV-1 (HIV-1; Sample A, MB 1 μM without light, 60 min): 5.70 Log10 TCID50/ml | Log10 TCID50/ml HIV-1 (HIV-1; Sample C, MB 1 μM + light 45,000 Lux, exposure 0 min): 5.82 Log10 TCID50/ml | Log10 TCID50/ml HIV-1 (HIV-1; Sample C, MB 1 μM + light 45,000 Lux, exposure 2 min): 3.37 Log10 TCID50/ml | Log10 TCID50/ml HIV-1 (HIV-1; Sample C, MB 1 μM + light 45,000 Lux, exposure 5 min): 1.5 Log10 TCID50/ml | Log10 TCID50/ml HIV-1 (HIV-1; Sample C, MB 1 μM + light 45,000 Lux, exposure 10 min): ≦0.5 Log10 TCID50/ml | Log10 TCID50/ml HIV-1 (HIV-1; Sample C, MB 1 μM + light 45,000 Lux, exposure 15 min): ≦0.5 Log10 TCID50/ml | Log10 TCID50/ml HIV-1 (HIV-1; Sample C, MB 1 μM + light 45,000 Lux, exposure 30 min): ≦0.5 Log10 TCID50/ml | Log10 TCID50/ml HIV-1 (HIV-1; Sample C, MB 1 μM + light 45,000 Lux, exposure 60 min): ≦0.5 Log10 TCID50/ml | Inactivation Rate (HIV-2): >3.81 * log10 TCID50 | Inactivation Rate (SIV): >6.26 * log10 TCID50 | Inactivation Rate (Herpes Simplex): >5.50 * log10 TCID50 | Inactivation Rate (Bovine Herpes): >8.11 * log10 TCID50 | Inactivation Rate (Suid Herpes Type 1): 4.43 * log10 TCID50 | Inactivation Rate (Sindbis): >9.73 log10 TCID50 | Inactivation Rate (West Nile): >6.50 log10 TCID50 | Inactivation Rate (Hog Cholera): >5.92 * log10 TCID50 | Inactivation Rate (Vesicular Stomatitis): >4.89 * log10 TCID50 | Inactivation Rate (Influenza): 5.10 log10 TCID50 | Inactivation Rate (Calici): >3.9 * log10 TCID50 | Virus Titer (adeno-virus; Sample C: F/T + MB + 60 min pre-incubation + 60 min irradiation): 2.5 Log10 TCID50 | Virus Titer (adeno-virus; Sample D: MB + F/T, no irradiation): 7.5 Log10 TCID50 | Virus Titer (adeno-virus; Sample E: MB + F/T + 10 min irradiation): 5.0 Log10 TCID50 | Virus Titer (adeno-virus; Sample F: MB + F/T + 30 min irradiation): 5.0 Log10 TCID50 | Virus Titer (adeno-virus; Sample G: MB + F/T + 60 min irradiation): 4.0 Log10 TCID50 | Factor V (coagulation factor V; Methylene Blue 1 μM): 0.76 E/ml | Factor V (coagulation factor V; Methylene Blue 2.5 μM): 0.78 E/ml | Factor V (coagulation factor V; Methylene Blue 5 μM): 0.74 E/ml | Factor V (coagulation factor V; Methylene Blue 10 μM): 0.54 E/ml | Factor V (coagulation factor V; Methylene Blue 20 μM): 0.44 E/ml | MB concentration from which factor V activity is inhibited (coagulation factor V): about 10 μM | Factor IX (coagulation factor IX [2]; Methylene Blue 1 μM): 1.9 E/ml | Factor IX (coagulation factor IX [2]; Methylene Blue 2.5 μM): 1.6 E/ml | Factor IX (coagulation factor IX [2]; Methylene Blue 5 μM): 1.45 E/ml | Factor IX (coagulation factor IX [2]; Methylene Blue 10 μM): 1.20 E/ml | Factor IX (coagulation factor IX [2]; Methylene Blue 20 μM): 1.10 E/ml | MB concentration from which factor IX activity is inhibited (coagulation factor IX [2]): 2.5 µM | Factor IX (coagulation factor IX [3]; light exposure 0 h, MB 1 μM): 1.20 E/ml | Factor IX (coagulation factor IX [3]; light exposure 0 h, MB 2.5 μM): 0.46 E/ml | Factor IX (coagulation factor IX [3]; light exposure 0 h, MB 10 μM): 0.44 E/ml | Factor IX (coagulation factor IX [3]; light exposure 1 h, MB 1 μM): 0.92 E/ml | Factor IX (coagulation factor IX [3]; light exposure 1 h, MB 2.5 μM): 0.82 E/ml | Factor IX (coagulation factor IX [3]; light exposure 1 h, MB 10 μM): 0.68 E/ml | Factor IX (coagulation factor IX [3]; light exposure 2 h, MB 1 μM): 0.90 E/ml | Factor IX (coagulation factor IX [3]; light exposure 2 h, MB 2.5 μM): 0.72 E/ml | Factor IX (coagulation factor IX [3]; light exposure 2 h, MB 10 μM): 0.74 E/ml | Factor IX (coagulation factor IX [3]; light exposure 4 h, MB 1 μM): 0.94 E/ml | Factor IX (coagulation factor IX [3]; light exposure 4 h, MB 2.5 μM): 0.82 E/ml | Factor IX (coagulation factor IX [3]; light exposure 4 h, MB 10 μM): 0.64 E/ml | inactivation of VSV (VSV): only partial inactivation | time until viral infectivity almost completely reduced to the detection limit (VSV): 15 to 30 min | Factor VIII (factor VIII): 0.42 U/ml
